Source: US8192962B2, “Processes for detecting toxic substances” (Daikin Industries, Ltd., priority 2001, dated 2012)

Tested on: Genes belonging to other category
Test: DNA chip mRNA expression in yeast, genes belonging to other category (Table 9)
Type: cell-based, Saccharomyces cerevisiae S288C
Outline: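 Expression change after 2 h toxicant exposure (growth-inhibiting, sub-lethal) of log-phase S. cerevisiae S288C at 25° C. Oligo-dT-purified mRNA was labeled with Cy3-dUTP or Cy5-dUTP and hybridized >12 h at 65° C. to a genome-wide chip; ratio of scanned fluorescence to control.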

Measured: The level of expressed mRNA in the presence of chemical substance/The level of expressed mRNA in the absence of chemical substance

O=[N+]([O-])c1cc[n+]([O-])c2ccccc12 [(5), 4-nitroquinolin-N-oxide]
1.4: yeast gene YAL055W | yeast gene YAR009C | yeast gene YBR009C | yeast gene YBR283C | yeast gene YCR062W | yeast gene YDL192W | yeast gene YDR115W | yeast gene YDR358W | yeast gene YER021W | yeast gene YFL026W
1.6: yeast gene YBL041W | yeast gene YDR432W
1.9: yeast gene YCR039C | yeast gene YER094C
1.0: yeast gene YAR010C | yeast gene YAR062W | yeast gene YBL101C | yeast gene YBR212W | yeast gene YBR290W | yeast gene YDR259C | yeast gene YDR378C | yeast gene YDR481C | yeast gene YFR004W | yeast gene YGL158W | yeast gene YGL229C | yeast gene YGR023W | yeast gene YHR132C
1.2: yeast gene YCL027W | yeast gene YCR004C | yeast gene YCR071C | yeast gene YDR084C | yeast gene YDR403W | yeast gene YER009W | yeast gene YFL043C | yeast gene YGR136W | yeast gene YGR213C
0.8: yeast gene YEL066W
0.7: yeast gene YBL078C | yeast gene YDR388W | yeast gene YDR510W | yeast gene YEL042W | yeast gene YFL022C | yeast gene YGR189C
1.5: yeast gene YER025W | yeast gene YER039C | yeast gene YHR004C | yeast gene YHR071W
1.1: yeast gene YBL043W | yeast gene YBR214W | yeast gene YCR088W | yeast gene YHR027C
1.3: yeast gene YBL005W-A | yeast gene YDR104C | yeast gene YER107C | yeast gene YGL094C | yeast gene YGL207W | yeast gene YGR257C | yeast gene YHR139C | yeast gene YHR142W
0.9: yeast gene YDL238C | yeast gene YDR085C | yeast gene YDR315C
0.5: yeast gene YCL020W
1.7: yeast gene YDR055W | yeast gene YER130C | yeast gene YFL028C
1.8: yeast gene YDL008W | yeast gene YDL018C | yeast gene YDL137W | yeast gene YDR373W | yeast gene YGL011C | yeast gene YGR120C | yeast gene YGR274C
2.1: yeast gene YCR096C
2.0: yeast gene YGR253C
